Measurements reported in patent US12714684B2 (ALPARIS, S.A. DE C.V., priority 2019, dated 2026).
Converted amounts (≈) assume the structure as drawn. Values belong to the molecule of their own block, whether it stands above or below them.

Tests used:
[1] = test system: carrageenan (CAR)-induced inflammation; assay: Carrageenan (CAR)-induced subplantar edema model, volume displacement by plethysmometer; assay type: in vivo, rats; conditions: for Time from which an anti-inflammatory effect is shown, carrageenan model: oral 100 mg/kg; for Effect in the time course, carrageenan model: oral 100 and 320 mg/kg
Method: The carrageenan (CAR)-induced subplantar edema model was used in the evaluation of the acute effect.
(§1) Preclinical studies were performed in rats with a chronic inflammation model using complete Freund's adjuvant (CFA) given intra-articularly (AIA), as well as an acute model induced by carrageenan (CAR) given in the subplantar region.
(§2) In these models, the inflammation induced by the complete Freund's adjuvant and carrageenan is determined by the volume displacement measured with a plethysmometer.

[2] = test system: CAR-induced thermal hyperalgesia; assay: Thermal hyperalgesia induced by carrageenan; assay type: in vivo, rats; conditions: oral 100 mg/kg
[3] = test system: Complete Freund's Adjuvant (CFA)-induced inflammation; assay: Complete Freund's adjuvant (CFA)-induced inflammation model, volume displacement by plethysmometer; assay type: in vivo, Sprague-Dawley male rats
Method: as §1, §2

[4] = Thermodynamic solubility study in water with 1% LSS; assay type: physicochemical
Method: It was performed by adding 2 g of the solid phase to LSS (sodium lauryl sulfate) medium, with stirring at 37.5° C., and taking aliquots at 3, 5, 10 and 30 minutes. Aliquots were filtered and measurements were made with UV-Vis spectroscopy at 420 nm.
We measured the solubility of the co-amorphous phases at a lower concentration of 0.05 g in 3.5 ml, for determining the effect of concentration on the aggregation phenomenon.

[5] = Merck Index 15th ed.; cited from earlier work
[6] = oral, 100 and 320 mg/kg, 1 h before

Compound: N=C(N)NCCC[C@H](N)C(=O)O [L-arginine]
Time from which an anti-inflammatory effect is shown, carrageenan model [1]: only in the last measurement | Effect in the time course, carrageenan model ([1]; first two hours): inclined to show a proinflammatory effect | Antihyperalgesic effect, carrageenan-induced thermal hyperalgesia [2]: the three treatments produce an antihyperalgesic effect | Effect in relation to the vehicle in the time course, CFA model ([3]; oral 100 and 320 mg/kg, between 2 and 4 hours): showed an inflammatory effect in relation to the vehicle

solubility at 30 min ([4]; water with 1% sodium lauryl sulfate (LSS), aqueous with cosolvent or surfactant or cyclodextrin, thermodynamic from solid, high concentration sample, 37.5° C., water with 1% LSS, 30 min): 110 µg/mL (≈ 299 µM) | Solubility of curcumin alone in water ([4]; water, could not be determined): almost insoluble in water
Compound: COc1cc(/C=C/C(=O)CC(=O)/C=C/c2ccc(O)c(OC)c2)ccc1O [curcumin, (1E,6E)-1,7-bis(4-hydroxy-3-methoxyphenyl)-1,6-heptadiene-3,5-dione]
Time from which an anti-inflammatory effect is shown, carrageenan model [1]: only in the last measurement | Effect with respect to the vehicle in the time course, carrageenan model ([1]; oral 320 mg/kg, at 1 and 2 hours): The same phenomenon is observed | Effect in the time course, carrageenan model ([1]; at 6 hours): seem to reverse the inflammatory effect induced by carrageenan | Reversal of the inflammatory effect induced by carrageenan (AUC) [1, 6]: unable to reverse the inflammatory effect | Solubility in solvents [5]: soluble in ethanol and in concentrated acetic acid | Antihyperalgesic effect, carrageenan-induced thermal hyperalgesia [2]: the three treatments produce an antihyperalgesic effect | Effect with respect to the vehicle in the time course, CFA model ([3]; oral 100 mg/kg, at 3 and 4 hours): shows an inflammatory effect with respect to the vehicle | Effect with respect to the vehicle in the time course, CFA model ([3]; oral 320 mg/kg, between 2 and 6 hours): shows an inflammatory effect with respect to the vehicle | Reversal of the inflammatory effect induced by complete Freund's adjuvant (AUC) [3, 6]: unable to reverse the inflammatory effect

Compound: O=C(O)Cc1ccccc1Nc1c(Cl)cccc1Cl [diclofenac]
Reversal of inflammation induced by carrageenan ([1]; oral, fixed dose 100 mg/kg): exhibited an anti-inflammatory effect | Reversal of inflammation induced by complete Freund's adjuvant ([3]; oral, fixed dose 100 mg/kg): exhibited an anti-inflammatory effect
